Source: patent publication US5192758A, “2-biphenyl-carbapenem antibacterial agents” (Merck & Co., Inc., priority 1992, dated 1993)

test system: rat; assay: Intracisternal assay: convulsant response (seizure potential); assay type: in vivo; conditions: injection of 20 micro-liters into the intracisternal cavity, amount giving a 50% seizure rate
Description: Central to the instant invention was the safety benefit realized by the incorporation of the cyano group to the imidazoliummethylbiphenyl moiety of the carbapenem nucleus, as shown in Table II below. […] This difference in activity was statistically significant and allows one to anticipate a much greater CNS safety profile for the compounds depicted.
The figure reported in Table II was the amount of active compound giving a 50% seizure rate in the rat, serving as a model for humans. For each compound, different concentrations were prepared in water and for each concentration, a group of animals were given an injection of 20 micro-liters into the intracisternal cavity. The seizure response of each member of the group was noted by observation.

Row | Structure (SMILES) | CONVULSANT RESPONSE MCG/HEAD-ED50
1 | CC(O)C1C(=O)N2C(C(=O)[O-])=C(c3cc(C#N)cc(-c4ccc(C[n+]5ccn(CCO)c5)cc4)c3)CC12 (centres unmarked) [R^c = CH2 CH2 OH, R' = CN] | 100 MCG/HEAD
2 | CC(O)C1C(=O)N2C(C(=O)[O-])=C(c3cc(Br)cc(-c4ccc(C[n+]5ccn(C)c5)cc4)c3)CC12 (centres unmarked) [R^c = CH3, R' = Br] | < 12.5 MCG/HEAD
3 | CC(O)C1C(=O)N2C(C(=O)[O-])=C(c3cccc(-c4ccc(C[n+]5ccn(C)c5)cc4)c3)CC12 (centres unmarked) [R^c = CH3, R' = H] | 35 MCG/HEAD
4 | CC(O)C1C(=O)N2C(C(=O)[O-])=C(c3cccc(-c4ccc(C[n+]5ccn(CCO)c5)cc4)c3)CC12 (centres unmarked) [R^c = CH2 CH2 OH, R' = H] | 35 MCG/HEAD
5 | CC(O)C1C(=O)N2C(C(=O)[O-])=C(c3cc(C#N)cc(-c4ccc(C[n+]5ccn(C)c5)cc4)c3)CC12 (centres unmarked) [R^c = CH3, R' = CN] | 100 MCG/HEAD
